Tested on: Nrf2 transcription factor (GST ARE luciferase reporter in AREc32 cells)
Experiment: AREc32 luciferase reporter assay
Format: cell-based, human
Conditions: EC2×: concentration required to increase GST ARE luciferase reporter activity by 2-fold, 19 hours
Excerpt: A. AREc32 Luciferase Reporter Assay The AREc32 luciferase reporter assay allows for quantitative assessment of the endogenous activity of the Nrf2 transcription factor in cultured mammalian cells. AREc32 cells are derived from MCF-7 human breast carcinoma cells that were stably transfected with a reporter construct that contains the firefly luciferase gene located downstream of eight copies of the rat GSTA2 antioxidant response element (ARE) sequence (Wang et al., 2006; CXR Biosciences). Active NRF2 binds to the ARE sequences and increases expression of the firefly luciferase gene. […] Luciferase activity was determined using the ONE-Glo Luciferase assay (Promega). The luminescence signal was measured on a BMG Pherastar microplate reader. The mean luminescence value from test compound-treated wells was normalized to that from DMSO-treated wells and was represented as fold-induction. Data were analyzed using GraphPad Prism version 6.00 for Windows, GraphPad Software, La Jolla Calif. USA. A non-linear regression curve with log (agonist) vs. response using a variable slope was used to fit the data. […] EC2× values were interpolated from the curve.

Row | SMILES | HRF2 ARE 2× [nM]
1 | C[C@H]1C(=O)C(C(N)=O)=C[C@@]2(C)c3nc(-c4ccncc4)nc(-c4ccccc4)c3CC[C@H]12 [T16] | 1000
2 | C[C@H]1C(=O)C(C#N)=C[C@@]2(C)c3nc(-c4ccnc5ccccc45)nc(-c4ccccc4F)c3C[C@H]12 [T170] | 1222
3 | CCC[C@H]1C(=O)C(C#N)=C[C@@]2(C)c3nc(-c4ccnc(C5CC5)c4)nc(-c4ccccc4F)c3CC[C@H]12 [T146] | 447
4 | C[C@H]1C(=O)C(C#N)=C[C@@]2(C)c3nc(-c4cccc5ncccc45)nc(-c4ccccc4F)c3C[C@H]12 [T173] | >2000
5 | C[C@H]1C(=O)C(C#N)=C[C@@]2(C)c3nc(-c4ccnc(CF)c4)nc(-c4ccccc4F)c3CC[C@H]12 [T83] | 484
6 | C[C@H]1C(=O)C(C#N)=C[C@@]2(C)c3nc(-c4ccncc4)nc(-c4ccc(CO)cc4)c3CC[C@H]12 [T21] | 443
7 | CCC[C@@]12C=C(C#N)C(=O)[C@H](C)[C@H]1CCc1c(-c3ccccc3F)nc(-c3ccnc(C4CC4)c3)nc12 [T169] | 540
8 | CCC[C@H]1C(=O)C(C#N)=C[C@@]2(C)c3nc(-c4ccnc5ccccc45)nc(-c4ccccc4F)c3CC[C@H]12 [T158] | 315
9 | C[C@H]1C(=O)C(C#N)=C[C@@]2(C)c3nc(-c4ccncc4)nc(Cc4ccccc4)c3CC[C@H]12 [T36] | 484
10 | CC(C)c1ccc(-c2nc(-c3ccnc4ccccc34)nc3c2CC[C@@H]2[C@@H](C)C(=O)C(C#N)=C[C@@]32C)cc1 [T161] | 158
11 | C[C@H]1C(=O)[C@@]2(C#N)O[C@H]2[C@@]2(C)c3nc(-c4ccnc(C5CC5)c4)nc(-c4ccccc4F)c3CC[C@H]12 [T130] | 692
12 | COc1nc(-c2ccnc(F)c2)nc2c1CC[C@@H]1[C@@H](C)C(=O)C(C#N)=C[C@@]21C [T6] | 341
13 | C[C@H]1C(=O)C(C#N)=C[C@@]2(C)c3nc(N4CCOCC4)nc(-c4ccccc4F)c3CC[C@H]12 [T92] | 491
14 | C[C@H]1C(=O)C(C#N)=C[C@@]2(C)c3nc(-c4ccnc(C5CC5)c4)nc(-c4ccccc4F)c3C[C@H]12 [T174] | >2000
15 | C[C@H]1C(=O)C(C#N)=C[C@@]2(C)c3nc(-c4ccncc4)nc(-c4cccc(C(F)(F)F)c4)c3CC[C@H]12 [T26] | 267
16 | COc1nc(OC)c2c(n1)[C@]1(C)C=C(C#N)C(=O)[C@H](C)[C@H]1CC2 [T1] | 487
17 | C[C@H]1C(=O)C(C#N)=C[C@@]2(C)c3nc(-c4ccnc5ccccc45)nc(-c4ccc(-c5ccccc5)cc4)c3CC[C@H]12 [T163] | 312
18 | C[C@H]1C(=O)C(C#N)=C[C@@]2(c3ccccc3)c3nc(-c4ccnc(C5CC5)c4)nc(-c4ccccc4F)c3CC[C@H]12 [T147] | >2000
19 | COc1nc(-c2cccnc2)nc2c1CC[C@@H]1[C@@H](C)C(=O)C(C#N)=C[C@@]21C [T7] | 388
20 | C[C@H]1C(=O)C(C#N)=C[C@@]2(C)c3nc(-c4ccc5ncccc5c4)nc(-c4ccccc4F)c3CC[C@H]12 [T60] | 380
21 | C[C@H]1C(=O)C(C#N)=C[C@@]2(C)c3nc(-c4ccncc4)nc(-c4ccc(Cl)c(Cl)c4)c3CC[C@H]12 [T31] | 186
22 | C[C@H]1C(=O)C(C#N)=C[C@@]2(C)c3nc(N4CCN(C)CC4)nc(-c4ccccc4F)c3CC[C@H]12 [T91] | 552
23 | CC1=C2CCc3c(-c4ccccc4F)nc(-c4ccnc5c(F)cccc45)nc3[C@]2(C)C=C(C#N)C1=O [T128] | 1385
24 | COc1nc(-c2ccncc2)nc2c1CC[C@@H]1[C@@H](C)C(=O)C(C#N)=C[C@@]21C [T5] | 365
25 | C[C@H]1C(=O)C(C#N)=C[C@@]2(C)c3nc(-c4ccncc4)nc(-c4ccc(C(F)(F)F)cc4)c3CC[C@H]12 [T24] | 171
26 | CC1(C)C(=O)[C@@]2(C#N)O[C@H]2[C@@]2(C)c3nc(-c4ccnc5ccccc45)nc(-c4ccccc4F)c3CC[C@H]12 [T133] | 1199
